For data set [1], the target named is ERβ (Homo sapiens, UniProt Q92731). The data set is described as follows: cell-based. Format: cell-based. The conditions noted are these: for Emax: HEK-293T, 24 h, read-out: Agonist Mode ERβ Eff (%E2); for transcriptional activity profile on ERβ: reporter gene assay, HEK293T. A general note: In a reporter assay the amount or activity of a reporter protein is the signal.

Data set [2] concerns VERO cells. The experiment in a line: toxicity to normal cells, MTT assay, VERO. In general terms: Tetrazolium dyes change colour on reduction, which living cells bring about.
In data set [3] the test system is MCF-7 breast cancer cells. The experiment in a line: antiproliferative activity, MTT assay, MCF-7. The conditions noted are these: Homo sapiens, MCF7, 72 h, read-out: MCF-7 Inhibition (%).
Data set [4] deals with T1, human ERα ligand binding domain (LBD) (Homo sapiens, UniProt P03372).
T1 sequence (P03372 311-547 limits assumed): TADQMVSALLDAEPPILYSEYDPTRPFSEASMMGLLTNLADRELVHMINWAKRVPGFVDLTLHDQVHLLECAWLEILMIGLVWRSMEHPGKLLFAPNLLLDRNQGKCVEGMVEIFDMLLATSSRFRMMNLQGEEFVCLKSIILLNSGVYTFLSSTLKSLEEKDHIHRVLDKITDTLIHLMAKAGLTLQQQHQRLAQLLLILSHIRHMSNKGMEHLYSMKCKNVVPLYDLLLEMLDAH
The experiment in a line: competitive fluorometric. The conditions noted are these: relative to parent 2a (compared to 2a and 4a).

Data set [5] concerns the target human ERβ ligand binding domain (LBD) (Homo sapiens, UniProt Q92731). The experiment in a line: competitive fluorometric. Conditions: ratio of RBA ERβ to RBA ERα.
Data set [6] addresses ERα (Homo sapiens, UniProt P03372). The data set is described as follows: cell-based. It is filed as cell-based. Conditions: for Agonist Mode ERα Eff (%E2): maximal response as percentage of response to 10^−8 M E2, HEK293T.

SMILES strings stand for the structures. Values joined by “and” are separate entries in the source; they are usually repeats but may differ in a detail not shown here. Equal entries are not always repeated.

ERβ, sequence (Q92731 whole entry): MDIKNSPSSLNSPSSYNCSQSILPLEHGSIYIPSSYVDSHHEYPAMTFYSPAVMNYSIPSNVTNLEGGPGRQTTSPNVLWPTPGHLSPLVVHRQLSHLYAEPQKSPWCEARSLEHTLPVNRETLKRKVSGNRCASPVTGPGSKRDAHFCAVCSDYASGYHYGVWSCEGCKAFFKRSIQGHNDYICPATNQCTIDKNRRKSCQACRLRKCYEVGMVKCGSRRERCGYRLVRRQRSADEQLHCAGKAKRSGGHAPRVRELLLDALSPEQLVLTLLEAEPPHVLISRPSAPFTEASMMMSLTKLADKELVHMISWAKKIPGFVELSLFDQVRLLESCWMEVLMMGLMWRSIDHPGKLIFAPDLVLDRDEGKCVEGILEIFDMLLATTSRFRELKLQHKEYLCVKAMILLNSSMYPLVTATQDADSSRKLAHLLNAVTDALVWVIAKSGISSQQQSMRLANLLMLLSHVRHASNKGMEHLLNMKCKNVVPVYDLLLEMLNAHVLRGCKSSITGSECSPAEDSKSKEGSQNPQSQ
human ERβ ligand binding domain (LBD), sequence (Q92731 264-498 limits assumed): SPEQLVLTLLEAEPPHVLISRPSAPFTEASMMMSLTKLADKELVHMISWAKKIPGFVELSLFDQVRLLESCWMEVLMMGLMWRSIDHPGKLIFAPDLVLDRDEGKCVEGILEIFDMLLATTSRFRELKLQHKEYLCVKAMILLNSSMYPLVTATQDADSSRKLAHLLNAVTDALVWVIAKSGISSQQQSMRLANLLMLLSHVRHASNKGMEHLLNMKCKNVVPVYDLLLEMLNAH
ERα, sequence (P03372 whole entry): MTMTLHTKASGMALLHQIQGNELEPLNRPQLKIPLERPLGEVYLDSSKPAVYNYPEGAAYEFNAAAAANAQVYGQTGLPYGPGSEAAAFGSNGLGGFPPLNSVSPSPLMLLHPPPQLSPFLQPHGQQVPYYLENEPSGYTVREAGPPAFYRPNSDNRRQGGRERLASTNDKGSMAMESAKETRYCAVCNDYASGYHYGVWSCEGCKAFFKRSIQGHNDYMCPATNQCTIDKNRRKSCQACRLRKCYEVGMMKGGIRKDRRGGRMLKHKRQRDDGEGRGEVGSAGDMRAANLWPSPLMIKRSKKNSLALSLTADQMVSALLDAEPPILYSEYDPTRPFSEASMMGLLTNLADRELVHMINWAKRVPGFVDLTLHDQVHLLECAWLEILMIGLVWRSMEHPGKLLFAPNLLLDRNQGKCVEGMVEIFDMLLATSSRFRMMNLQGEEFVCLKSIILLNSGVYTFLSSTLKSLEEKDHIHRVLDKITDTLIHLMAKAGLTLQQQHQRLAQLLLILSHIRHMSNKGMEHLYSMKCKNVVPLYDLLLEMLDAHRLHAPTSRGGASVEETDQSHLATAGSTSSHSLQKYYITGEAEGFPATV

The term inhibition denotes the percentage by which the read-out fell short of the control. For the compound `CC/C(=C(\c1ccc(O)cc1)c1ccc(OCCN(C)C)cc1)c1ccccc1` [Compound 4OHT, 4-hydroxytamoxifen, reference compound], in data set [1], the “Agonist Mode ERβ Eff (%E2)” value is −1 ± 1 %E2 and the “Antagonist Mode ERβ Eff (%E2)” value is listed as −20 ± 2 %E2. Further, the “toxicity to healthy VERO cells” value in data set [2] is reported as “considerable toxicity”. Also, in data set [3], the inhibition at 10 µM was found to be 81.7%.
The EC50 is the concentration giving half of the maximal effect. A lower EC50 goes with an effect from little substance. In the case of `Oc1ccc(-c2cc(Br)c(-c3ccc(O)cc3)[se]2)cc1` [Compound 6a, 3-Bromo-2,5-bis(4-hydroxyphenyl)selenophene], the “fold increase in binding affinity for ERα over 2a” value in data set [4] is 8 fold and ~10 fold. Further, the β/α in data set [5] is 2.32. For the same compound, in data set [6], it took 15 nM to reach a half-maximal effect (EC50) and the “Agonist Mode ERα Eff (%E2)” value is listed as 69 ± 11 %E2. Also, in data set [6] (reporter gene assay, HEK293T), the “transcriptional activity profile on ERα” value was “full agonist”. Further, in data set [1], the EC50 stood at 13 nM, the Emax turned out to be 40 ± 5% and the “transcriptional activity profile on ERβ” value was “partial agonist”. Further, in data set [3], the inhibition at 10 µM was determined as 0%.
On to `Cc1cc(O)ccc1-c1cc(Br)c(-c2ccc(O)cc2C)[se]1` [Compound 6b, 3-Bromo-2,5-bis(4-hydroxy-2-methylphenyl)selenophene], for which the “fold increase in binding affinity for ERα over 2a” value in data set [4] is on record as “more than 23 fold”. In addition, in data set [5], the β/α was determined as 0.74. In data set [6], the EC50 stood at 790 nM and the “Agonist Mode ERα Eff (%E2)” value is listed as 21 ± 5 %E2. In data set [1], the EC50 came out at 9 nM, the Emax turned out to be 69 ± 9% and the “transcriptional activity profile on ERβ” value was “antagonist”. For the same compound, in data set [3], the inhibition at 10 µM was 2.5%.
For `Cc1cc(-c2cc(-c3cc(C)c(O)c(C)c3)c(-c3cc(C)c(O)c(C)c3)[se]2)cc(C)c1O` [Compound 8c, 2,3,5-Tris(4-hydroxy-3,5-dimethylphenyl)selenophene], in data set [5], the β/α is reported as 0.55. In data set [6], it took 270 nM to reach a half-maximal effect (EC50) and the “Agonist Mode ERα Eff (%E2)” value is 74 ± 4 %E2. Besides, in data set [1], the EC50 was 17 nM and the Emax turned out to be 69 ± 5%. Further, the “toxicity to healthy VERO cells” value in data set [2] was “nontoxic”. In addition, the inhibition at 10 µM in data set [3] was found to be 75.3%.

(Values after publication PMC5405701 (ChemMedChem, 2017).)
